# From PubChem BioAssay (NCI)
#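 GI50 marks 50% less growth. Definition used: TGI = concentration required for complete inhibition of growth.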
# Assays:
# Test in all cases: inhibition of tumour cell growth, NCI panel, 384-well format
# 786-0 renal = system: 786-0 renal
# SR leukemia = system: SR leukemia
# UACC-62 melanoma = system: UACC-62 melanoma
# SW-620 colon = system: SW-620 colon
# K-562 leukemia = system: K-562 leukemia
# HS 578T breast = system: HS 578T breast
# UACC-257 melanoma = system: UACC-257 melanoma
# T-47D breast = system: T-47D breast
# HCT-116 colon = system: HCT-116 colon
# MOLT-4 leukemia = system: MOLT-4 leukemia
# KM12 colon = system: KM12 colon
# BT-549 breast = system: BT-549 breast
# HCC-2998 colon = system: HCC-2998 colon
# CCRF-CEM leukemia = system: CCRF-CEM leukemia
# DU-145 prostate = system: DU-145 prostate
# NCI-H322M lung = system: NCI-H322M lung
# MDA-MB-231 breast = system: MDA-MB-231 breast
# NCI-H226 lung = system: NCI-H226 lung
# HCT-15 colon = system: HCT-15 colon
# SK-OV-3 ovarian = system: SK-OV-3 ovarian
# HOP-92 NSCLC = system: HOP-92 NSCLC
# EKVX NSCLC = system: EKVX NSCLC
# U251 glioblastoma = system: U251 glioblastoma
# NCI-H23 lung = system: NCI-H23 lung
# NCI-H460 NSCLC = system: NCI-H460 NSCLC
# SK-MEL-5 melanoma = system: SK-MEL-5 melanoma
# COLO 205 colon = system: COLO 205 colon
# NCI-H522 lung = system: NCI-H522 lung
# SF-295 CNS = system: SF-295 CNS
# MDA-MB-468 breast = system: MDA-MB-468 breast
# SNB-75 CNS = system: SNB-75 CNS
# SF-268 CNS = system: SF-268 CNS
# OVCAR-4 ovarian = system: OVCAR-4 ovarian
# ACHN renal = system: ACHN renal
# NCI/ADR-RES ovarian = system: NCI/ADR-RES ovarian
# PC-3 prostate = system: PC-3 prostate
# A549 NSCLC = system: A549 NSCLC
# CAKI-1 renal = system: CAKI-1 renal
# SN12C renal = system: SN12C renal
# RXF 393 renal = system: RXF 393 renal
# UO-31 renal = system: UO-31 renal
# SF-539 CNS = system: SF-539 CNS
# TK-10 renal = system: TK-10 renal
# MALME-3M melanoma = system: MALME-3M melanoma
# RPMI-8226 leukemia = system: RPMI-8226 leukemia
# HL-60(TB) leukemia = system: HL-60(TB) leukemia
# MCF7 breast = system: MCF7 breast
# SNB-19 CNS = system: SNB-19 CNS
# LOX IMVI melanoma = system: LOX IMVI melanoma
# OVCAR-8 ovarian = system: OVCAR-8 ovarian
# HT29 colon = system: HT29 colon
# M14 melanoma = system: M14 melanoma
# OVCAR-3 ovarian = system: OVCAR-3 ovarian
# HOP-62 NSCLC = system: HOP-62 NSCLC
# IGROV1 ovarian = system: IGROV1 ovarian
# A498 renal = system: A498 renal
smiles,measurement,setting,value
Cn1nccc1Nc1nccc(-c2ccn([C@H](CO)c3ccc(Cl)c(F)c3)c(=O)c2)n1,GI50,786-0 renal,19.9 µM
same,TGI,786-0 renal,58.7 µM
same,GI50,SR leukemia,47.8 µM
same,TGI,SR leukemia,85.2 µM
same,GI50,UACC-62 melanoma,0.0678 µM
same,TGI,UACC-62 melanoma,14.8 µM
same,GI50,SW-620 colon,1.65 µM
same,TGI,SW-620 colon,14.6 µM
same,GI50,K-562 leukemia,6.93 µM
same,TGI,K-562 leukemia,21.7 µM
same,GI50,HS 578T breast,18.8 µM
same,TGI,HS 578T breast,34.1 µM
same,GI50,UACC-257 melanoma,0.209 µM
same,TGI,UACC-257 melanoma,> 100 µM
same,GI50,T-47D breast,11.1 µM
same,TGI,T-47D breast,54.5 µM
same,GI50,HCT-116 colon,1.78 µM
same,TGI,HCT-116 colon,11.8 µM
same,GI50,MOLT-4 leukemia,11.6 µM
same,TGI,MOLT-4 leukemia,24 µM
same,GI50,KM12 colon,18.6 µM
same,TGI,KM12 colon,> 100 µM
same,GI50,BT-549 breast,15.1 µM
same,TGI,BT-549 breast,34.6 µM
same,GI50,HCC-2998 colon,0.565 µM
same,TGI,HCC-2998 colon,12.1 µM
same,GI50,CCRF-CEM leukemia,4.29 µM
same,TGI,CCRF-CEM leukemia,15 µM
same,GI50,DU-145 prostate,18.3 µM
same,TGI,DU-145 prostate,38.1 µM
same,GI50,NCI-H322M lung,15.6 µM
same,TGI,NCI-H322M lung,> 100 µM
same,GI50,MDA-MB-231 breast,21.3 µM
same,TGI,MDA-MB-231 breast,> 100 µM
same,GI50,NCI-H226 lung,26.4 µM
same,TGI,NCI-H226 lung,64.8 µM
same,GI50,HCT-15 colon,28.6 µM
same,TGI,HCT-15 colon,> 100 µM
same,GI50,SK-OV-3 ovarian,15.9 µM
same,TGI,SK-OV-3 ovarian,33.3 µM
same,GI50,HOP-92 NSCLC,14.3 µM
same,TGI,HOP-92 NSCLC,28.2 µM
same,GI50,EKVX NSCLC,76.5 µM
same,TGI,EKVX NSCLC,> 100 µM
same,GI50,U251 glioblastoma,7.42 µM
same,TGI,U251 glioblastoma,20.9 µM
same,GI50,NCI-H23 lung,0.899 µM
same,TGI,NCI-H23 lung,24 µM
same,GI50,NCI-H460 NSCLC,20.4 µM
same,TGI,NCI-H460 NSCLC,45.1 µM
same,GI50,SK-MEL-5 melanoma,0.409 µM
same,TGI,SK-MEL-5 melanoma,22.1 µM
same,GI50,COLO 205 colon,0.102 µM
same,TGI,COLO 205 colon,12.9 µM
same,GI50,NCI-H522 lung,2.66 µM
same,TGI,NCI-H522 lung,9.45 µM
same,GI50,SF-295 CNS,54 µM
same,TGI,SF-295 CNS,> 100 µM
same,GI50,MDA-MB-468 breast,23.7 µM
same,TGI,MDA-MB-468 breast,48.5 µM
same,GI50,SNB-75 CNS,22.6 µM
same,TGI,SNB-75 CNS,45.3 µM
same,GI50,SF-268 CNS,38.1 µM
same,TGI,SF-268 CNS,> 100 µM
same,GI50,OVCAR-4 ovarian,> 100 µM
same,TGI,OVCAR-4 ovarian,> 100 µM
same,GI50,ACHN renal,45 µM
same,TGI,ACHN renal,> 100 µM
same,GI50,NCI/ADR-RES ovarian,78.1 µM
same,TGI,NCI/ADR-RES ovarian,> 100 µM
same,GI50,PC-3 prostate,29.8 µM
same,TGI,PC-3 prostate,84.3 µM
same,GI50,A549 NSCLC,25.3 µM
same,TGI,A549 NSCLC,> 100 µM
same,GI50,CAKI-1 renal,15.5 µM
same,TGI,CAKI-1 renal,> 100 µM
same,GI50,SN12C renal,1.67 µM
same,TGI,SN12C renal,4.67 µM
same,GI50,RXF 393 renal,21.2 µM
same,TGI,RXF 393 renal,49 µM
same,GI50,UO-31 renal,30 µM
same,TGI,UO-31 renal,> 100 µM
same,GI50,SF-539 CNS,1.76 µM
same,TGI,SF-539 CNS,3.55 µM
same,GI50,TK-10 renal,21.2 µM
same,TGI,TK-10 renal,51.7 µM
same,GI50,MALME-3M melanoma,0.0289 µM
same,TGI,MALME-3M melanoma,0.104 µM
same,GI50,RPMI-8226 leukemia,16.5 µM
same,TGI,RPMI-8226 leukemia,31 µM
same,GI50,HL-60(TB) leukemia,0.11 µM
same,TGI,HL-60(TB) leukemia,13.1 µM
same,GI50,MCF7 breast,37.4 µM
same,TGI,MCF7 breast,> 100 µM
same,GI50,SNB-19 CNS,16.6 µM
same,TGI,SNB-19 CNS,52 µM
same,GI50,LOX IMVI melanoma,1.08 µM
same,TGI,LOX IMVI melanoma,11.7 µM
same,GI50,OVCAR-8 ovarian,3.44 µM
same,TGI,OVCAR-8 ovarian,10.7 µM
same,GI50,HT29 colon,0.443 µM
same,TGI,HT29 colon,20.7 µM
same,GI50,M14 melanoma,0.0794 µM
same,TGI,M14 melanoma,10.3 µM
same,GI50,OVCAR-3 ovarian,18.5 µM
same,TGI,OVCAR-3 ovarian,54.3 µM
same,GI50,HOP-62 NSCLC,19.5 µM
same,TGI,HOP-62 NSCLC,47.2 µM
same,GI50,IGROV1 ovarian,14 µM
same,TGI,IGROV1 ovarian,39.5 µM
same,GI50,A498 renal,18.1 µM
same,TGI,A498 renal,33.9 µM
